Assay results published in patent US20130303509A1, “NAMPT INHIBITORS” (AbbVie Inc., priority 2012, published 2013).

System: PC3 cells
Experiment: NAMPT Cell Proliferation Assay
Type: cell-based
Details: Homo sapiens, PC-3, 120 h, 5 days incubation, cell viability by Cell Titer Glo
Summary of the method: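 Five-day CellTiter-Glo viability readout in PC3 cells grown in RPMI/10% heat-inactivated FBS. Compounds added after overnight attachment as a 10-fold dilution series, […]. Percent inhibition fitted to sigmoidal dose-response to derive IC50.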

| SMILES | IC50 |
| --- | --- |
| O=C(Nc1ccc(C2CN(C(=O)c3ccccc3F)C2)cc1)[C@H]1CCN(c2cccnn2)C1 [Example 785, (3S)—N-{4-[1-(2-fluorobenzoyl)azetidin-3-yl]phenyl}-1-(pyridazin-3-yl)pyrrolidine-3-carboxamide] | 1.17 nM |
| O=C(Nc1ccc(C2CN(C(=O)c3cccc(F)c3)C2)cc1)[C@H]1CCN(c2cccnn2)C1 [Example 786, (3S)-N-{4-[1-(3-fluorobenzoyl)azetidin-3-yl]phenyl}-1-(pyridazin-3-yl)pyrrolidine-3-carboxamide] | 12 nM |
| O=C(Nc1ccc(C2CN(C(=O)c3ccc(F)cc3)C2)cc1)[C@H]1CCN(c2cccnn2)C1 [Example 787, (3S)-N-{4-[1-(4-fluorobenzoyl)azetidin-3-yl]phenyl}-1-(pyridazin-3-yl)pyrrolidine-3-carboxamide] | 63.9 nM |
| O=C(Nc1ccc(C2CN(C(=O)c3ccccc3)C2)cc1)[C@H]1CCN(c2cccnn2)C1 [Example 788, (3S)-N-[4-(1-benzoylazetidin-3-yl)phenyl]-1-(pyridazin-3-yl)pyrrolidine-3-carboxamide] | 7.59 nM |
| CC(C)(C)C(=O)N1CC(c2ccc(NC(=O)[C@H]3CCN(c4cccnn4)C3)cc2)C1 [Example 789, (3S)-N-{4-[1-(2,2-dimethylpropanoyl)azetidin-3-yl]phenyl}-1-(pyridazin-3-yl)pyrrolidine-3-carboxamide] | 28.4 nM |
| O=C(Nc1ccc(C2CN(C(=O)c3cc(F)cc(F)c3)C2)cc1)[C@H]1CCN(c2cccnn2)C1 [Example 790, (3S)-N-{4-[1-(3,5-difluorobenzoyl)azetidin-3-yl]phenyl}-1-(pyridazin-3-yl)pyrrolidine-3-carboxamide] | 74.6 nM |
| O=C(Nc1ccc(C2CN(C(=O)c3ccc(F)cc3F)C2)cc1)[C@H]1CCN(c2cccnn2)C1 [Example 792, (3S)-N-{4-[1-(2,4-difluorobenzoyl)azetidin-3-yl]phenyl}-1-(pyridazin-3-yl)pyrrolidine-3-carboxamide] | 8.8 nM |
| O=C(Nc1ccc(C2CCN(C(=O)c3ccccc3)CC2)cc1)[C@@H]1CCN(c2cccnn2)C1 [Example 793, (3R)—N-[4-(1-benzoylpiperidin-4-yl)phenyl]-1-(pyridazin-3-yl)pyrrolidine-3-carboxamide] | 329 nM |
| O=C(Nc1ccc(C2CCN(C(=O)c3ccccc3F)CC2)cc1)[C@@H]1CCN(c2cccnn2)C1 [Example 794, (3R)—N-{4-[1-(2-fluorobenzoyl)piperidin-4-yl]phenyl}-1-(pyridazin-3-yl)pyrrolidine-3-carboxamide] | 196 nM |
| CC(C)(C)C(=O)N1CCC(c2ccc(NC(=O)[C@@H]3CCN(c4cccnn4)C3)cc2)CC1 [Example 795, (3R)—N-{4-[1-(2,2-dimethylpropanoyl)piperidin-4-yl]phenyl}-1-(pyridazin-3-yl)pyrrolidine-3-carboxamide] | 773 nM |
| O=C(Nc1ccc(OC2CCN(C(=O)C3CCCCC3)CC2)cc1)[C@H]1CCN(c2cccnn2)C1 [Example 796, (3S)—N-(4-{[1-(cyclohexylcarbonyl)piperidin-4-yl]oxy}phenyl)-1-(pyridazin-3-yl)pyrrolidine-3-carboxamide] | 11.7 nM |
| O=C(Nc1ccc(OC2CCN(C(=O)c3ccccc3F)CC2)cc1)[C@H]1CCN(c2cccnn2)C1 [Example 797, (3S)-N-(4-{[1-(2-fluorobenzoyl)piperidin-4-yl]oxy}phenyl)-1-(pyridazin-3-yl)pyrrolidine-3-carboxamide] | 12.6 nM |
| O=C(Nc1ccc(OC2CCN(C(=O)c3cccc(F)c3)CC2)cc1)[C@H]1CCN(c2cccnn2)C1 [Example 798, (3S)-N-(4-{[1-(3-fluorobenzoyl)piperidin-4-yl]oxy}phenyl)-1-(pyridazin-3-yl)pyrrolidine-3-carboxamide] | 66.4 nM |
| O=C(Nc1ccc(OC2CCN(C(=O)c3ccccc3)CC2)cc1)[C@H]1CCN(c2cccnn2)C1 [Example 799, (3S)-N-{4-[(1-benzoylpiperidin-4-yl)oxy]phenyl}-1-(pyridazin-3-yl)pyrrolidine-3-carboxamide] | 25.5 nM |
| O=C(Nc1ccc(OC2CCN(C(=O)c3ccc(F)cc3)CC2)cc1)[C@H]1CCN(c2cccnn2)C1 [Example 800, (3S)-N-(4-{[1-(4-fluorobenzoyl)piperidin-4-yl]oxy}phenyl)-1-(pyridazin-3-yl)pyrrolidine-3-carboxamide] | 60 nM |
| CC(C)(C)C(=O)N1CCC(Oc2ccc(NC(=O)[C@H]3CCN(c4cccnn4)C3)cc2)CC1 [Example 801, (3S)-N-(4-{[1-(2,2-dimethylpropanoyl)piperidin-4-yl]oxy}phenyl)-1-(pyridazin-3-yl)pyrrolidine-3-carboxamide] | 24.6 nM |
| CC1CC1C(=O)N1CCC(Oc2ccc(NC(=O)[C@H]3CCN(c4cccnn4)C3)cc2)CC1 (stereo partly drawn) [Example 802, (3S)-N-[4-({1-[(2-methylcyclopropyl)carbonyl]piperidin-4-yl}oxy)phenyl]-1-(pyridazin-3-yl)pyrrolidine-3-carboxamide] | 26.3 nM |
| CC(C)(C)Cc1nnc(-c2ccc(NC(=O)C3CN(c4cccnn4)C3)cc2)o1 [Example 803, N-{4-[5-(2,2-dimethylpropyl)-1,3,4-oxadiazol-2-yl]phenyl}-1-(pyridazin-3-yl)azetidine-3-carboxamide] | 1.61 nM |
| CC(C)(C)Cn1cnc(-c2ccc(NC(=O)C3CN(c4cccnn4)C3)cc2)c1 [Example 804, N-{4-[1-(2,2-dimethylpropyl)-1H-imidazol-4-yl]phenyl}-1-(pyridazin-3-yl)azetidine-3-carboxamide] | 7.92 nM |
| Cn1nc(C2CC2)cc1-c1ccc(NC(=O)C2CN(c3cccnn3)C2)cc1 [Example 805, N-[4-(3-cyclopropyl-1-methyl-1H-pyrazol-5-yl)phenyl]-1-(pyridazin-3-yl)azetidine-3-carboxamide] | 65 nM |
| CC(C)(C)Cc1nc(-c2ccc(NC(=O)C3CN(c4cccnn4)C3)cc2)no1 [Example 806, N-{4-[5-(2,2-dimethylpropyl)-1,2,4-oxadiazol-3-yl]phenyl}-1-(pyridazin-3-yl)azetidine-3-carboxamide] | 3.13 nM |
| COCCn1nc(C2CC2)cc1-c1ccc(NC(=O)C2CN(c3cccnn3)C2)cc1 [Example 807, N-{4-[3-cyclopropyl-1-(2-methoxyethyl)-1H-pyrazol-5-yl]phenyl}-1-(pyridazin-3-yl)azetidine-3-carboxamide] | 4.15 nM |
| CC(C)(C)OC(=O)N1CCC(c2ccc(C(=O)NC3CN(c4cccnn4)C3)s2)CC1 [Example 808, tert-butyl 4-(5-{[1-(pyridazin-3-yl)azetidin-3-yl]carbamoyl}thiophen-2-yl)piperidine-1-carboxylate] | 41.1 nM |
| CC(C)(C)OC(=O)N1CCC(F)(c2ccc(NC(=O)C3CN(c4cccnn4)C3)cc2)CC1 [Example 809, tert-butyl 4-fluoro-4-[4-({[1-(pyridazin-3-yl)azetidin-3-yl]carbonyl}amino)phenyl]piperidine-1-carboxylate] | 2.4 nM |
| O=C(NC1CN(c2cccnn2)C1)c1ccc(C2CCN(C(=O)c3ccccc3)CC2)s1 [Example 810, 5-(1-benzoylpiperidin-4-yl)-N-[1-(pyridazin-3-yl)azetidin-3-yl]thiophene-2-carboxamide] | 61.1 nM |
| O=C(NC1CN(c2cccnn2)C1)c1ccc(C2CCN(C(=O)c3ccccc3F)CC2)s1 [Example 811, 5-[1-(2-fluorobenzoyl)piperidin-4-yl]-N-[1-(pyridazin-3-yl)azetidin-3-yl]thiophene-2-carboxamide] | 11 nM |
